These results are taken from patent US9273040B2 (Merck Sharp & Dohme Corp., priority 2011, dated 2016).

Test [1] addresses T1, human Nav1.5 channels stably expressed in HEK 293 cells (Homo sapiens, UniProt Q14524).
T1 construct: expressed in transfected cells
Put plainly: PatchXpress 7000 automated patch-clamp, sodium current. The format is cell-based. Particulars: selectivity over Nav1.5. An outline of the steps:
(§1)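 IC50 values came from Hill-equation fits of rundown-corrected inhibition. PatchXpress recordings at 22° C held cells 20 mV negative to V0.5 inact and applied 10 Hz trains of 30 ms steps to −20 mV (Nav1.7) or an 8000 ms prepulse 7 mV positive to V0.5 inact. […]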

For test [2], the target named is T2, human Nav1.7 channels stably expressed in HEK 293 cells (Homo sapiens, UniProt Q15858).
T2 construct: expressed in transfected cells
Described as above. It counts as cell-based. Particulars: 22° C., read-out: potency for the Nav 1.7 sodium ion channel (as measured by PatchXpress). In outline:
as §1

T1 sequence (Q14524 whole entry): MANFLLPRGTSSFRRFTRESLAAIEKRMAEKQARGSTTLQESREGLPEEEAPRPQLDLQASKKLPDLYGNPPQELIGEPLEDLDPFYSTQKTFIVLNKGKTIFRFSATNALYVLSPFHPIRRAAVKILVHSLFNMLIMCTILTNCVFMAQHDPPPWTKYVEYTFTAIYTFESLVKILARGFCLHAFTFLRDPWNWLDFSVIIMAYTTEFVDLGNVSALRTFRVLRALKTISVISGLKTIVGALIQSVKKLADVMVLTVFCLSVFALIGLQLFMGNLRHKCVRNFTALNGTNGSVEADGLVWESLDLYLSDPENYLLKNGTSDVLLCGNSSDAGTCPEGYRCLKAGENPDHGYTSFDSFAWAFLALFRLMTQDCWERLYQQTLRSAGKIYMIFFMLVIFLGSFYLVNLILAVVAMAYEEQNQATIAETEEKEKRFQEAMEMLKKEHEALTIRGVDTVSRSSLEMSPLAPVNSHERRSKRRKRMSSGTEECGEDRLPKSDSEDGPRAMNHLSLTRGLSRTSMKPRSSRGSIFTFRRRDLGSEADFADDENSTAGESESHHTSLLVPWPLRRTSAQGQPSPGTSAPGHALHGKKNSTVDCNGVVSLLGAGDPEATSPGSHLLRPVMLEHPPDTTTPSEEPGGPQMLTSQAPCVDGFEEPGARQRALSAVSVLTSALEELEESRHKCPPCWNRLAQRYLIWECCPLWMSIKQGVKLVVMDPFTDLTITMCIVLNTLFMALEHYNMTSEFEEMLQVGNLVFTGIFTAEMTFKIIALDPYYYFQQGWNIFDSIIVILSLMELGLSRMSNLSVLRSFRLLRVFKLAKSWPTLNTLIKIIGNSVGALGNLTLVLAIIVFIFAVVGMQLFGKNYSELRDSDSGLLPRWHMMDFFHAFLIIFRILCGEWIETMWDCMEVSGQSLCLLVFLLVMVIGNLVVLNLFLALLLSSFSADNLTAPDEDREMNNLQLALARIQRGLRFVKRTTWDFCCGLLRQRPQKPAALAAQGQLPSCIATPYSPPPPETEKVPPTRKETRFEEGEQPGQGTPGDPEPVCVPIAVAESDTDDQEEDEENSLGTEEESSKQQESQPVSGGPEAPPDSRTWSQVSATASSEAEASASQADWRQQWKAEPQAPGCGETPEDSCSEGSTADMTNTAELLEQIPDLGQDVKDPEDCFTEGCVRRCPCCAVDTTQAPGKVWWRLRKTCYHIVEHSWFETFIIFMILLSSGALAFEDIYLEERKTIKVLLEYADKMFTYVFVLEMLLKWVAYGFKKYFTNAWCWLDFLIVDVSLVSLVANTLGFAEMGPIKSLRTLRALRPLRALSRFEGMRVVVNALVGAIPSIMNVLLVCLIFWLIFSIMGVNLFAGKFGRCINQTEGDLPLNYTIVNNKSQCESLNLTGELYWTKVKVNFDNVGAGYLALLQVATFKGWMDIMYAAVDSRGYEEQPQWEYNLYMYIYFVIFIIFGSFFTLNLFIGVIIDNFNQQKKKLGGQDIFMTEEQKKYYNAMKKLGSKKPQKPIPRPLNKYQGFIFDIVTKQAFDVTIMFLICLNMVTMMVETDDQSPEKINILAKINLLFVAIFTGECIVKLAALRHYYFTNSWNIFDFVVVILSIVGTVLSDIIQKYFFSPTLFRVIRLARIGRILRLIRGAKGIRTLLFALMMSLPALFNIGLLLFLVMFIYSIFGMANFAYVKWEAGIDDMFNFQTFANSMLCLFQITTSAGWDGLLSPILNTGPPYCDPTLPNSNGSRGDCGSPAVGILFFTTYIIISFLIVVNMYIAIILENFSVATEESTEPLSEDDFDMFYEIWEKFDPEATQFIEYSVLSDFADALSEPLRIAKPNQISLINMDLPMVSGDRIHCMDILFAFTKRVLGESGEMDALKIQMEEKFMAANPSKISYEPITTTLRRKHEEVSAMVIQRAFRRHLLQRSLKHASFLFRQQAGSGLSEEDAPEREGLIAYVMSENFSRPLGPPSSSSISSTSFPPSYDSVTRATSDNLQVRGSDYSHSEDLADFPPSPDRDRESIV
T2 sequence (Q15858 whole entry): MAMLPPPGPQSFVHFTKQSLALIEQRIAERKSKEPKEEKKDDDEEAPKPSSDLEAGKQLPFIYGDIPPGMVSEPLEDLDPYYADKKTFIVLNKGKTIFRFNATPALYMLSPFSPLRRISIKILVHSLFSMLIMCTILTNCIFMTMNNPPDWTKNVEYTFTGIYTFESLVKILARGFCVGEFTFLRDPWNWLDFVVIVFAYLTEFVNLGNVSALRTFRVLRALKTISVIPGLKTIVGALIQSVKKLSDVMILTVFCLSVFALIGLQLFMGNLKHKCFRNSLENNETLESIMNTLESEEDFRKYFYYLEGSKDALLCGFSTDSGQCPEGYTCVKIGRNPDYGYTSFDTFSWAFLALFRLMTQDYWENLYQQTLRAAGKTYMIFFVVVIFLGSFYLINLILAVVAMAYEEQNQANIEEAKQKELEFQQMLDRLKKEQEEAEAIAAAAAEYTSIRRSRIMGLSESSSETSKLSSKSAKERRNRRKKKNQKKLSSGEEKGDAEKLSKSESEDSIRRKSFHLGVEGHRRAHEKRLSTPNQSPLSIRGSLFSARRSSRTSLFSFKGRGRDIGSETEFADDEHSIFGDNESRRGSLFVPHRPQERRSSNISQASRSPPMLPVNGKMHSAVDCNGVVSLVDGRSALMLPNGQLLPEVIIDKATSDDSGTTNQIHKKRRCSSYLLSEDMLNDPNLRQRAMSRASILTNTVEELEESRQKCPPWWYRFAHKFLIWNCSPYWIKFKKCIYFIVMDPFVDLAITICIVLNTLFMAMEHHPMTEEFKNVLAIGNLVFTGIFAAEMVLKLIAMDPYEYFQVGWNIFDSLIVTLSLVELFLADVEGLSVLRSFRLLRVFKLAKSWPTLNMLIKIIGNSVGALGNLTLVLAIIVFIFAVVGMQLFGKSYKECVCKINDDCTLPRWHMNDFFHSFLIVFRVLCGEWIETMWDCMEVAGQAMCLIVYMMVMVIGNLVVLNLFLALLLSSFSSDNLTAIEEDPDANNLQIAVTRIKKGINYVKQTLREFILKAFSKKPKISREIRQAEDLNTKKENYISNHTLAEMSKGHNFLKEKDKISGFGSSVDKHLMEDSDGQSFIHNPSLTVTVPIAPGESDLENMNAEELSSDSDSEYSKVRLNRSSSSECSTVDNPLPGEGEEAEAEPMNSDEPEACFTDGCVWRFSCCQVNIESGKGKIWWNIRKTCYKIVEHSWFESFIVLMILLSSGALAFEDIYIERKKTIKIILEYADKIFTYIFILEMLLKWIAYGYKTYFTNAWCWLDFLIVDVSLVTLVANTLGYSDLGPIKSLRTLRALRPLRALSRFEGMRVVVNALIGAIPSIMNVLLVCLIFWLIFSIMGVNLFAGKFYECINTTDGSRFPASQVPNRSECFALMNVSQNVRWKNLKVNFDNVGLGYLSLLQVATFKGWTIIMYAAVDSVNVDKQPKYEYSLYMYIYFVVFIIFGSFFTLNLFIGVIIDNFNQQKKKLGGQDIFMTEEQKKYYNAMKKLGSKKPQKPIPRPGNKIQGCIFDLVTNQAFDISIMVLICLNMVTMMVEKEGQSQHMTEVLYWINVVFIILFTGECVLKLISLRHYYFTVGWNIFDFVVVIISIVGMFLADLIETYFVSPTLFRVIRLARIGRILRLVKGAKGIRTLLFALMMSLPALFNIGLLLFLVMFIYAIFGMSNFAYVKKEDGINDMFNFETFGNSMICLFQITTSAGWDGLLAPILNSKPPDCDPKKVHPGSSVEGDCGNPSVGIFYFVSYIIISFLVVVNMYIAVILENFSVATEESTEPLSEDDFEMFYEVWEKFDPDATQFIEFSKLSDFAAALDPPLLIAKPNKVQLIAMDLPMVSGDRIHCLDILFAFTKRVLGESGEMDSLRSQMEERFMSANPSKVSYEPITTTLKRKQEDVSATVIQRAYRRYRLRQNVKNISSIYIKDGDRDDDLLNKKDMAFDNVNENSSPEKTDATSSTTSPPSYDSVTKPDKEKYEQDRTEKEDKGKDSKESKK

Consider `CCc1cc2c(cc1S(=O)(=O)Nc1ncns1)oc(=O)n2[C@H](C)c1ccccc1` [Compound 38-2, 5-ethyl-2-oxo-3-[(1R)-1-phenylethyl]-N-1,2,4-thiadiazol-5-yl-2,3-dihydro-1,3-benzoxazole-6-sulfonamide], for which the “ratio of Nav 1.5:Nav 1.7 potency, determined by PatchXpress measurement” value (shortened to “ratio of Nav 1.5:Nav 1.7 potency”) in test [1] is reported as 17. The IC50 in test [2] worked out at 94 nM.
The corresponding values for `Cc1cc2c(cc1S(=O)(=O)Nc1ncns1)oc(=O)n2[C@H](C)c1ccccc1` [Compound 38-3] are 37 and 43 nM.
The corresponding values for `Nc1ccc2c(c1)C(n1c(=O)oc3cc(S(=O)(=O)Nc4ncns4)c(F)cc31)CCC2` (centres unmarked) [Compound 39-3] are 1196 and 41 nM.
The corresponding values for `O=c1oc2cc(S(=O)(=O)Nc3ncns3)c(F)cc2n1C1CC2(COC2)Oc2ccccc21` (centres unmarked) [Compound 39-4, 3-(3,4-dihydrospiro[chromene-2,3′-oxetan]-4-yl)-5-fluoro-2-oxo-N-1,2,4-thiadiazol-5-yl-2,3-dihydro-1,3-benzoxazole-6-sulfonamide] are 58 and 312 nM.
As for `Cc1cccc2c1CCCC2n1c(=O)oc2cc(S(=O)(=O)Nc3ncns3)c(F)cc21` (centres unmarked) [Compound 39-5, 5-fluoro-3-(5-methyl-1,2,3,4-tetrahydronaphthalen-1-yl)-2-oxo-N-1,2,4-thiadiazol-5-yl-2,3-dihydro-1,3-benzoxazole-6-sulfonamide], in test [1], the “ratio of Nav 1.5:Nav 1.7 potency” value came out at 14. For the same molecule, the IC50 in test [2] amounted to 261 nM.
For `O=c1oc2cc(S(=O)(=O)Nc3ncns3)c(F)cc2n1C1CCOc2ccccc21` (centres unmarked) [Compound 39-6, 3-(3,4-dihydro-2H-chromen-4-yl)-5-fluoro-2-oxo-N-1,2,4-thiadiazol-5-yl-2,3-dihydro-1,3-benzoxazole-6-sulfonamide], in test [1], the “ratio of Nav 1.5:Nav 1.7 potency” value was determined as 110. For the same molecule, the IC50 in test [2] was determined as 221 nM.
With `CC1(C)CC(n2c(=O)oc3cc(S(=O)(=O)Nc4ncns4)c(F)cc32)c2ccccc2O1` (centres unmarked) [Compound 39-7, 3-(2,2-dimethyl-3,4-dihydro-2H-chromen-4-yl)-5-fluoro-2-oxo-N-1,2,4-thiadiazol-5-yl-2,3-dihydro-1,3-benzoxazole-6-sulfonamide], in test [1], the “ratio of Nav 1.5:Nav 1.7 potency” value is 137. In addition, the IC50 in test [2] stood at 218 nM.
The corresponding values for `O=c1oc2cc(S(=O)(=O)Nc3ncns3)c(F)cc2n1C1COCc2ccccc21` (centres unmarked) [Compound 39-8, 3-(3,4-dihydro-1H-isochromen-4-yl)-5-fluoro-2-oxo-N-1,2,4-thiadiazol-5-yl-2,3-dihydro-1,3-benzoxazole-6-sulfonamide] are 29 and 204 nM.
On to `O=C(c1ccccc1)N1CCC2(CC1)CC(n1c(=O)oc3cc(S(=O)(=O)Nc4ncns4)c(F)cc31)c1cc(F)ccc1O2` (centres unmarked) [Compound 39-9, 5-fluoro-3-[6-fluoro-1′-(phenylcarbonyl)-3,4-dihydrospiro[chromene-2,4′-piperidin]-4-yl]-2-oxo-N-1,2,4-thiadiazol-5-yl-2,3-dihydro-1,3-benzoxazole-6-sulfonamide], for which the “ratio of Nav 1.5:Nav 1.7 potency” value in test [1] worked out at 54. In test [2], the IC50 is 168 nM.
With `O=c1oc2cc(S(=O)(=O)Nc3ncns3)c(F)cc2n1C1CCCc2ccccc21` (centres unmarked) [Compound 39-10, 5-fluoro-2-oxo-3-(1,2,3,4-tetrahydronaphthalen-1-yl)-N-1,2,4-thiadiazol-5-yl-2,3-dihydro-1,3-benzoxazole-6-sulfonamide], in test [1], the “ratio of Nav 1.5:Nav 1.7 potency” value amounted to 199. Besides, in test [2], the IC50 turned out to be 168 nM.
The corresponding values for `O=c1oc2cc(S(=O)(=O)Nc3ncns3)c(F)cc2n1C1CC2(CCN(Cc3ccccc3)CC2)Oc2ccccc21` (centres unmarked) [Compound 39-11, 3-(1′-benzyl-3,4-dihydrospiro[chromene-2,4′-piperidin]-4-yl)-5-fluoro-2-oxo-N-1,2,4-thiadiazol-5-yl-2,3-dihydro-1,3-benzoxazole-6-sulfonamide] are 114 and 166 nM.
`CC1(C)CCC(n2c(=O)oc3cc(S(=O)(=O)Nc4ncns4)c(F)cc32)c2ccccc21` (centres unmarked) [Compound 39-12, 3-(4,4-dimethyl-1,2,3,4-tetrahydronaphthalen-1-yl)-5-fluoro-2-oxo-N-1,2,4-thiadiazol-5-yl-2,3-dihydro-1,3-benzoxazole-6-sulfonamide]: in test [1], the “ratio of Nav 1.5:Nav 1.7 potency” value amounted to 38. For the same molecule, the IC50 in test [2] worked out at 159 nM.
The corresponding values for `O=c1oc2cc(S(=O)(=O)Nc3ncns3)c(F)cc2n1C1CCOc2ccc(F)cc21` (centres unmarked) [Compound 39-13, 5-fluoro-3-(6-fluoro-3,4-dihydro-2H-chromen-4-yl)-2-oxo-N-1,2,4-thiadiazol-5-yl-2,3-dihydro-1,3-benzoxazole-6-sulfonamide] are 295 and 112 nM.
The corresponding values for `O=c1oc2cc(S(=O)(=O)Nc3ncns3)c(F)cc2n1[C@@H]1CC2(CCC2)Oc2ccccc21` [Compound 39-14, 3-[(4R)-3,4-dihydrospiro[chromene-2,1′-cyclobutan]-4-yl]-5-fluoro-2-oxo-N-1,2,4-thiadiazol-5-yl-2,3-dihydro-1,3-benzoxazole-6-sulfonamide] are 99 and 60 nM.
The corresponding values for `O=c1oc2cc(S(=O)(=O)Nc3ncns3)c(F)cc2n1[C@@H]1C[C@@H](c2ccccc2)Oc2ccccc21` [Compound 39-15, 5-fluoro-2-oxo-3-[(2S,4R)-2-phenyl-3,4-dihydro-2H-chromen-4-yl]-N-1,2,4-thiadiazol-5-yl-2,3-dihydro-1,3-benzoxazole-6-sulfonamide] are 36 and 54 nM.
Regarding `O=c1oc2cc(S(=O)(=O)Nc3ncns3)c(F)cc2n1[C@H]1CC2(CCC2)Oc2ccccc21` [Compound 39-16, 3-[(4S)-3,4-dihydrospiro[chromene-2,1′-cyclobutan]-4-yl]-5-fluoro-2-oxo-N-1,2,4-thiadiazol-5-yl-2,3-dihydro-1,3-benzoxazole-6-sulfonamide], the “ratio of Nav 1.5:Nav 1.7 potency” value in test [1] is 149. Further, in test [2], the IC50 is 53 nM.
Regarding `O=c1oc2cc(S(=O)(=O)Nc3ncns3)c(F)cc2n1[C@H]1CC2(CCC2)Oc2ccc(F)cc21` [Compound 39-17, 5-fluoro-3-[(4S)-6-fluoro-3,4-dihydrospiro[chromene-2,1′-cyclobutan]-4-yl]-2-oxo-N-1,2,4-thiadiazol-5-yl-2,3-dihydro-1,3-benzoxazole-6-sulfonamide], the “ratio of Nav 1.5:Nav 1.7 potency” value in test [1] worked out at 115. In addition, the IC50 in test [2] turned out to be 53 nM.
The corresponding values for `Cc1csc(NS(=O)(=O)c2ccc3c(c2)oc(=O)n3C(C)c2ccccc2)n1` (centres unmarked) [Compound 40-5, N-(4-methyl-1,3-thiazol-2-yl)-2-oxo-3-(1-phenylethyl)-2,3-dihydro-1,3-benzoxazole-6-sulfonamide] are 25 and 1190 nM.
For the molecule `C[C@H](c1ccccc1)n1c(=O)oc2cc(S(=O)(=O)Nc3nccs3)ccc21` [Compound 41-4, (R)-2-oxo-3-(1-phenylethyl)-N-(thiazol-2-yl)-2,3-dihydrobenzo[d]oxazole-6-sulfonamide], the “ratio of Nav 1.5:Nav 1.7 potency” value in test [1] is listed as 187. Moreover, in test [2], the IC50 was determined as 161 nM.
The corresponding values for `COC(=O)[C@H](c1ccccc1)n1c(=O)oc2cc(S(=O)(=O)Nc3nccs3)ccc21` [Compound 41-6, methyl (2S)-[2-oxo-6-(1,3-thiazol-2-ylsulfamoyl)-1,3-benzoxazol-3(2H)-yl](phenyl)ethanoate] are 54 and 553 nM.
`C[C@H](c1cccc2c1CNCC2)n1c(=O)oc2cc(S(=O)(=O)Nc3nccs3)ccc21` [Compound 42-1, (R)-2-oxo-3-(1-(1,2,3,4-tetrahydroisoquinolin-8-yl)ethyl)-N-(thiazol-2-yl)-2,3-dihydrobenzo[d]oxazole-6-sulfonamide]: in test [1], the “ratio of Nav 1.5:Nav 1.7 potency” value was determined as 1017. Also, in test [2], the IC50 is 30 nM.
On to `C[C@H](c1ccccc1)n1c(=O)oc2cc(S(=O)(=O)Nc3nccs3)c(F)cc21` [Compound 43-2, (R)-5-fluoro-2-oxo-3-(1-phenylethyl)-N-(thiazol-2-yl)-2,3-dihydrobenzo[d]oxazole-6-sulfonamide], for which the “ratio of Nav 1.5:Nav 1.7 potency” value in test [1] worked out at 88. The IC50 in test [2] worked out at 68 nM.
The corresponding values for `O=c1oc2cc(S(=O)(=O)Nc3nccs3)c(F)cc2n1C1CCCc2ccncc21` (centres unmarked) [Compound 43-3, 5-fluoro-2-oxo-3-(5,6,7,8-tetrahydroisoquinolin-8-yl)-N-1,3-thiazol-2-yl-2,3-dihydro-1,3-benzoxazole-6-sulfonamide] are 91 and 550 nM.
For `O=c1oc2cc(S(=O)(=O)Nc3nccs3)c(F)cc2n1C1CCCc2cccnc21` (centres unmarked) [Compound 43-4, 5-fluoro-2-oxo-3-(5,6,7,8-tetrahydroquinolin-8-yl)-N-1,3-thiazol-2-yl-2,3-dihydro-1,3-benzoxazole-6-sulfonamide], the “ratio of Nav 1.5:Nav 1.7 potency” value in test [1] came out at 71. In addition, in test [2], the IC50 came to 424 nM.
The corresponding values for `O=c1oc2cc(S(=O)(=O)Nc3nccs3)c(F)cc2n1C1CCCc2ccc(Cl)nc21` (centres unmarked) [Compound 43-5, 3-(2-chloro-5,6,7,8-tetrahydroquinolin-8-yl)-5-fluoro-2-oxo-N-1,3-thiazol-2-yl-2,3-dihydro-1,3-benzoxazole-6-sulfonamide] are 202 and 416 nM.
